According to US6420385B1, “Substituted pyrimidinone and pyridone compounds and methods of use” (Amgen Inc., priority 1996, dated 2002):

System: TNF production by monocytes activated with bacterial lipopolysaccharide (LPS)
Assay: Lipopolysaccharide-activated monocyte TNF production assay (LPS induced TNF release)
Format: cell-based, human
Conditions: Homo sapiens, Monocyte, TNF in supernatant by ELISA
Experimental: Lipopolysaccharide-activated Monocyte TNF Production Assay
Test compounds were evaluated in vitro for the ability to inhibit the production of TNF by monocytes activated with bacterial lipopolysaccharide (LPS). Fresh residual source leukocytes (a byproduct of plateletpheresis) were obtained from a local blood bank, and peripheral blood mononuclear cells (PBMCs) were isolated by density gradient centrifugation on Ficol-Paque Plus (Pharmacia). PBMCs were suspended at 2×10^6/ ml in DMEM supplemented to contain 2% FCS, 10 mM, 0.3 mg/ml glutamate, 100 U/ml penicillin G and […] streptomycin sulfate (complete media). Cells were plated into Falcon flat bottom, 96 well culture plates (200 μl/well) and cultured overnight at 37° C. and 6% CO2. Non-adherent cells were removed by washing with 200 μl/well of fresh medium. Wells containing adherent cells (˜70% monocytes) were replenished with 100 μl of fresh medium.
Preparation of Test Compound Stock Solutions
Test compounds were dissolved in […]. Compound stock solutions were prepared to an initial concentration of […]. Stocks were diluted initially to 20-200 μM in complete media. Nine two-fold serial dilutions of each compound were then prepared in complete medium.
Treatment of Cells with Test Compounds and Activation of TNF Production with Lipopolysaccharide
One hundred microliters of each test compound dilution were added to microtiter wells containing adherent monocytes and 100 μl complete medium. Monocytes were cultured with test compounds for 60 min at which time 25 μl of complete medium containing 30 ng/ml lipopolysaccharide from E. coli K532 were added to each well. Cells were cultured an additional 4 hrs. Culture supernatants were then removed and TNF presence in the supernatants was quantified using an ELISA.
Flat bottom, 96 well Corning High Binding ELISA plates were coated overnight (4° C.) with 150 μL/well of 3 μg/ml murine anti-human TNF-α MAb (R&D Systems #MAB210). Wells were then blocked for 1 hr at room temperature with 200 μL/well of CaCl2-free ELISA buffer supplemented to contain 20 mg/ml BSA (standard ELISA buffer: […], 150 mM NaCl, 2 mM CaCl2, 0.15 mM thimerosal, pH 7.4). Plates were washed and replenished with 100 μl of test supernatants (diluted 1:3) or standards. Standards consisted of eleven 1.5-fold serial dilutions from a stock of 1 ng/ml recombinant human TNF (R&D Systems). Plates were incubated at room temperature for 1 hr on orbital shaker (300 rpm), washed and replenished with 100 μl/well of 0.5 μg/ml goat anti-human TNF-α (R&D systems #AB-210-NA) biotinylated at a 4:1 ratio. Plates were incubated for 40 min, washed and replenished with 100 μl/well of alkaline phosphatase-conjugated streptavidin (Jackson ImmunoResearch #016-050-084) at 0.02 μg/ml. Plates were incubated 30 min, washed and replenished with 200 μl/well of 1 mg/ml of p-nitrophenyl phosphate. After 30 min, plates were read at […] on a Vmax plate reader.
Standard curve data were fit to a second order polynomial and unknown TNF-α concentrations determined from their OD by solving this equation for concentration. TNF concentrations were then plotted vs. test compound concentration using a second order polynomial. This equation was then used to calculate the concentration of test compounds causing a 50% reduction in TNF production.

| SMILES | IC50 |
| --- | --- |
| O=c1[nH]c(-c2ccccc2)cc(-c2ccncc2)c1-c1ccccc1 [3,6-Diphenyl-4-(4-pyridyl)-2(1H)-pyridone] | ≤ 20 µM |
| O=c1[nH]c(-c2cccs2)cc(-c2ccncc2)c1-c1ccccc1 [3-Phenyl-4-(4-pyridyl)-6-(2-thienyl)-2(1H)-pyridone] | ≤ 20 µM |
| Cc1ccc(-c2cc(-c3ccncc3)c(-c3ccccc3)c(=O)[nH]2)c(C)c1 [6-(2,4-Dimethylphenyl)-3-phenyl-4-(4-pyridyl)-2(1H)-pyridone] | ≤ 20 µM |
| O=c1[nH]c(-c2ccco2)cc(-c2ccncc2)c1-c1ccccc1 [6-(2-Furyl)-3-phenyl-4-(4-pyridyl)-2(1H)-pyridone] | ≤ 20 µM |
| Cc1ccc(-c2cc(-c3ccncc3)c(-c3ccccc3)c(=O)[nH]2)cc1 [6-(4-Methylphenyl)-3-phenyl-4-(4-pyridyl)-2(1H)-pyridone] | ≤ 20 µM |

Same assay, conditions: TNF in supernatant by ELISA

| SMILES | IC50 |
| --- | --- |
| Cc1ccccc1C(N)CCNc1nc(-c2ccncc2)c(-c2cccc(C(F)(F)F)c2)c(=O)n1C (stereo not shown) [2-((3-Amino-3-(2-methylphenyl)propyl)-amino)-3-methyl-6-(4-pyridyl)5-(3-trifluoromethylphenyl)-4-(3H)-pyrimidinone] | ≤ 5 µM |
| Cn1c(NCCC(N)c2ccccc2)nc(-c2ccncc2)c(-c2cccc(C(F)(F)F)c2)c1=O (stereo not shown) [2-((3-Amino-3-phenylpropyl)-amino)-3-methyl-6-(4-pyridyl)5-(3-trifluoromethylphenyl)-4-(3H)-pyrimidinone] | ≤ 5 µM |
